Measurements published in patent publication US20210290680A1, “METHODS AND COMPOSITIONS FOR MODULATING CELLULAR AGING” (Dorian Therapeutics, Inc., priority 2019, published 2021).

Experiments:
Type in all cases: cell-based, human
CD19.CAR T cells = test: Apoptosis, necrosis, mitochondrial membrane potential and glutathione content (Amberglass panel); settings: for cells with low mitochondrial membrane potential (Q1) / cellular health: high mitochondrial membrane potential and high GSH content (Q2): day 15; for apoptosis: day 15, FIG. 31A top left; for necrosis: day 15, FIG. 31A top right
Protocol: Primary T cells were activated as described (Example 3), and transduced with a lentivirus encoding for CD19.CAR co-expressing shUSP16 #1, shUSP16 #2 or a scrambled shRNA (Control). Cells were cultured in IL-2 and sorted between days 6-13 for EGFRt. At day 15 cells were stained and analyzed by MACSQuant for apoptosis, necrosis, mitochondrial membrane potential and glutathione content (GSH). The data generation was powered by Amberglass technology made available by Mojave Bio in the form of a dehydrated panel of reagents on a 96 well plate.

CDKN2A = test: qPCR of senescence marker CDKN2A; settings: CD19.CAR, day 15, n=4
From the text: Primary T cells were activated as described (Example 3), transduced with a lentivirus encoding for either a CD19.CAR or a GD2.CAR co-expressing shUSP16 #1, shUSP16 #2 or a scrambled shRNA (Control). Fifteen days post-activation, T cells were collected and qPCR performed. TaqMan probes detecting CDKN1A, CDKN2A (FIGS. 26A and 26B) (fold change GD2.CAR (n=4): CDKN1A Control vs shUSP #1: 0.4360, p<0.0001, and Control vs shUSP16 #2: 3.036, p=0.004 respectively. Fold change CD19.CAR (n=4): CDKN2a, CDKN1A Control vs shUSP #1: 0.6906, p=0.0026; 0.7228, p=0.0297 and Control vs shUSP16 #2: 0.8385, p=0.2325; 0.7017, p=0.0021), TCF7, LEF1, and Axin-2 (FIGS. 27A and B) were analyzed in GD2.CAR and CD19.CAR-expressing cells, respectively. ACTB was used as internal control. (GD2.CAR (n=4) TCF7, LEF1 and Axin-2: Control vs shUSP #1: 1.914 p=0.0512; 1.795 p=0.0323; 3.269 p=0.15 and Control vs shUSP16 #2: 1.284 p=0.0494; 1.718 p=0.0586; 2.035p=0.235, respectively. Fold change CD19.CAR (n=4): TCF7, LEF1 and Axin-2: Control vs shUSP #1: 1.528, p=0.0277; 1.82, p=0.0449; 1.998, p=0.031 and Control vs shUSP16 #2: 1.18, p=0.2002; 1.579, p=0.0632; 1.261, p=0.2382). […]

USP16 = test: qPCR of USP16 expression; settings: for downregulation of USP16 (Ctrl vs shRNA): primary T cells, day 15
From the text: A new set of shRNAs were cloned into the pSIH backbone, where the shRNA expression is driven by the H1 promoter. The vector was also engineered to co-express GFP and Puromycin resistance through a T2A sequence. The new shRNA sequences were: shUSP16 #1 5′-[…]-3′ (SEQ ID NO: 8) and shUSP16 #2 5′-[…]-3′ (SEQ ID NO: 9). Primary T cells were activated as described (Example 3), transduced with a lentivirus encoding either a shUSP16 #1, shUSP16 #2 or a scrambled shRNA (Control) and cells were selected with puromycin at day 6. Between 1 and 1.25×10^6 cells were plated post-puromycin selection with a purity higher than 90% and counted every 2-4 days by Trypan Blue exclusion using Vi-CELL XR cell counter (Beckman Coulter). qPCR was performed to verify downregulation of USP16 expression (FIG. 14A) and the expression of the senescent marker CDKN1A (FIG. 14B) at day 15. Proliferation was measured as fold increased compared to shControl at day 15 post-activation. The experiment was repeated using primary T cells obtained from buffy coats of 3 different healthy donors.
Primary T cells were activated as described (Example 3). At Day 6 post-activation, dynabeads were removed and T cells electroporated using the Neon Transfection System (ThermoFisher) with a 2.5:1 ratio sgRNA:Cas9. The experiment was performed following the protocol optimized for primary T cell by Synthego (CRISPR Editing Human Primary CD4+ T cells with RNPs using Neon Electroporation Protocol, 2018 version). The sgRNA used are the following: gUSP16 #1 5′-[…]-3′ (SEQ ID NO: 10) and gSynthego that comprises 3 different sgRNAs (gRNA-A: 5′-[…] 3′ (SEQ ID NO: 11); gRNA-B: 5′-[…]-3′ (SEQ ID NO: 12); gRNA-C: 5′-[…]-3′ (SEQ ID NO: 13)). Control T cells, identified as Mock, were electroporated but no Cas9:sgRNA mixture was added. […] At day 15 post-activation, cells were stained for CD4-PE, CD8-BV510, CD62L-Allophycocyanin and CD45RA-APC-Cy7 (Biolegend). Stem cell memory T cells (Tscm) were identified as Sytox^−GFP^+CD45RA^+CD62L^+ and graphed as ratio compared to mock cells (FIG. 22). The experiment was repeated using primary T cells obtained from buffy coats of 2 different healthy donors.
Primary T cells were activated as described (Example 3), transduced with a lentivirus encoding for either a CD19.CAR or a GD2.CAR co-expressing shUSP16 #1, shUSP16 #2 or a scrambled shRNA (Control). Cells were cultured in IL-2 and sorted between days 6-13 for EGFRt. Cells were plated post-sorting with a purity higher than 85% and counted every 2-4 days by Trypan Blue exclusion using Vi-CELL XR cell counter. Fifteen days post-activation both CD19.CAR and GD2.CAR T cells were collected, and qPCR was performed to verify downregulation of USP16 expression (FIG. 24) (fold change GD2.CAR (n=3): Control vs shUSP #1: 0.35, p<0.0001, and Control vs shUSP16 #2: 0.2452, p<0.0001, fold change CD19.CAR (n=4): Control vs shUSP #1: 0.2891, p<0.0001, and Control vs shUSP16 #2: 0.2566, p<0.0001). Proliferation was measured as fold increase compared to control cells at day 15 (FIG. 25).

Row | Substance | cells with low mitochondrial membrane potential (Q1) (CD19.CAR T cells) | cellular health: high mitochondrial membrane potential and high GSH content (Q2) (CD19.CAR T cells) | apoptosis (CD19.CAR T cells) | necrosis (CD19.CAR T cells) | CDKN2a expression, fold change vs Control (CDKN2A) | USP16 expression, fold change vs Control (USP16; CD19.CAR T cells, day 15, n=4) | USP16 expression, fold change vs Control (USP16; GD2.CAR T cells, day 15, n=3) | downregulation of USP16 (Ctrl vs shRNA) (USP16) [%]
1 | shUSP16 #1: shRNA targeting USP16, 5′-GACTGTAAGACTGACAATAAA-3′ (SEQ ID NO: 8), pSIH backbone or co-expressed in CAR plasmid | 7.62 percentage of cells | 89.9 | 9.40 | 4.75 | 0.6906 | 0.2891 | 0.35 | 56
2 | shUSP16 #2: shRNA targeting USP16, 5′-TATATCAGTTCACCCGTAAT-3′ (SEQ ID NO: 9), pSIH backbone or co-expressed in CAR plasmid | 9.87 percentage of cells | 85.7 | 8.25 | 3.96 | 0.8385 | 0.2566 | 0.2452 | 53
